Measurements taken from ChEMBL document CHEMBL1128162, “Synthesis and binding properties of myo-inositol 4,5,6-tris(phosphate) an analogue of myo-inositol 1,4,5-tris(phosphate). Correlation with the ionization state of the molecules” (Bioorg Med Chem Lett, 1995).
One block for each compound: values may come before it.

What was measured:
[1] = molecular target: Inositol 1,4,5-trisphosphate receptor (Homo sapiens, UniProt Q14571+Q14573+Q14643); test: Binding affinity against Ins(4,5)P2 receptor prepared from purified guinea pig hepatocytes; set-up: species or system Cavia porcellus; conditions: hepatocyte
[2] = Binding affinity against Ins(4,5,6)P3 receptor prepared from purified rat brain cerebellum; assay type: tissue-based
[3] = Binding affinity against Ins(1,4,5)P3 receptor prepared from purified rat brain cerebellum; assay type: tissue-based

IC50 [1]: 50 µM
Compound: O=P(O)(O)O[C@@H]1[C@@H](O)[C@H](O)[C@H](O)[C@H](O)[C@H]1OP(=O)(O)O

IC50 [2]: 9.3 µM
Compound: O=P(O)(O)O[C@H]1[C@H](OP(=O)(O)O)[C@@H](O)[C@@H](O)[C@@H](O)[C@@H]1OP(=O)(O)O

IC50 [3]: 10 nM
Compound: O=P(O)(O)O[C@@H]1[C@H](O)[C@H](O)[C@@H](OP(=O)(O)O)[C@H](OP(=O)(O)O)[C@H]1O [INS(1,4,5)P3]
